This assay concerns bacteria or mold. The assay is described as follows: retention of antimicrobial activity on a substrate. To be noted: no test method described.

With `Cc1cc(O)cc(C)c1Cl` [PCMX, 4-chloro-3,5-dimethyl phenol], the “duration of antimicrobial effect on a substrate” value is reported as “hours”.

These data come from patent US20120190754A1, “ANTIMICROBIAL COMPOSITION CONTAINING PARACHLORMETAXYLENOL” (Sentinel Products Corp., priority 2009, published 2012).
